Reference: patent US20260209692A1, “BASAL MEDIUM COMPOSITION FOR ANIMAL CELL CULTURE” (TableMark Co., Ltd., priority 2023, published 2026)

Assays:
[1] = test system: MDBK cells (established cell line); assay: Culturability when L-cystine was replaced with L-cysteine, MDBK (Example 9); format: cell-based, bovine; details: end of third subculture, 0.072 g/L
Experimental: (§1) Cells used: MDBK cells (established cell line), RL34 cells (established cell line), duck liver-derived cells (primary cultured cells)
(§2) Amount of L-cysteine hydrochloride monohydrate added: Since L-cystine is a dimer of L-cysteine, L-cysteine hydrochloride monohydrate was added in an amount twice the number of moles of L-cystine.
(§3) MDBK cells and RL34 cells were each subcultured in a complete medium prepared by adding 1% PSA and 10% FBS to the above basal medium. Duck liver-derived cells were also subcultured in a complete medium prepared by adding 1% PSA and 10% serum to the above basal medium. In both cases, subculture was performed every 3 to 4 days, and subculture was performed up to the third time.

[2] = test system: RL34 cells (established cell line); assay: Culturability when L-cystine was replaced with L-cysteine, RL34 (Example 9); format: cell-based, rat; details: RL34, end of third subculture, 0.072 g/L
Experimental: as §1, §2, §3

[3] = test system: duck liver-derived cells (primary cultured cells); assay: Culturability when L-cystine was replaced with L-cysteine, duck liver-derived cells (Example 9); format: cell-based; details: end of third subculture, 0.072 g/L
Experimental: as §1, §2, §3

[4] = test system: mouse-derived myoblast cell line C2C12; assay: Cell culture test of amino acid conditions, C2C12 (Example 1); format: cell-based; details: C2C12, from condition 19 (1/8 amount) vs condition 20
Experimental: Of the constituents to be contained in Dulbecco's Modified Eagle Medium (DMEM), those excluding amino acids was dissolved in ion-exchanged water to prepare A.A.-IMEM Seven types of yeast extract ([…], and J) shown below were each further added to the A.A.-IMEM Buffer, so that the final concentration in the medium was 1 g/L. Various amino acids required for the proliferation of cultured cells in DMEM were added to “A.A.-IMEM Buffer+yeast extract” according to conditions 1 to 16 in Table 3, and a cell culture test was conducted. […] The amount of each amino acid added was the same as that contained in the formulation of DMEM. In addition, the same amino acid composition as that of DMEM was used as P.C. (positive control), while the same amino acid composition as that of DMEM but with 1⁄8th the amount added was used as condition 19, and that with 1/32nd the amount added was used as condition 20. All reagents used in the experiment were of food additive grade. 10% heat-inactivated fetal bovine serum (FBS) and 1% penicillin-streptomycin-amphotericin (PSA) were further added to A.A.-IMEM Buffer+yeast extract and the amino acids of each condition listed in Table 3, so as to conduct a cell culture test. For the cell culture test, mouse-derived myoblast cell line C2C12 was used. […]

Row | SMILES | difference in culturability due to replacement of L-cystine [1] | difference in culturability due to replacement of L-cystine [2] | difference in culturability due to replacement of L-cystine [3] | amount of amino acid required in the medium [4]
1 | Cl.N[C@@H](CS)C(=O)O.O [L-cysteine hydrochloride monohydrate] | almost no difference in culturability | almost no difference in culturability | almost no difference in culturability | 
2 | N[C@@H](CSSC[C@H](N)C(=O)O)C(=O)O [L-cystine] |  |  |  | at least 6.13 mg/L
3 | NC(=O)CC[C@H](N)C(=O)O [L-glutamine] |  |  |  | ≥ 74.5 mg/L
